Our source for the melting point values is a melting point compilation (Tetko et al.; mined from patent text by program, amines drawn as free bases though some values may be those of a salt).

SMILES strings stand for the structures. Where only a bound is given, the exact number is not on record here.

The compound `CCOC(=O)c1cccc2c1c1c(C)ccc(C)c1n2S(=O)(=O)c1ccc(C)cc1` came in with a melting point of 149 °C.

`CCN(CC)C(=O)Oc1ccc2ccccc2c1` gave a melting point of 51 to 53 °C.

`CSC(=C[N+](=O)[O-])NCCCCc1csc(N(CC(F)(F)F)C(=N)N)n1`: the melting point lay in the range of 140 to 141 °C.

For `Cn1cc(C(=O)CCl)cc1C(=O)c1ccc([N+](=O)[O-])cc1`, the melting point fell in the range of 173 to 176 °C.

For `Cc1cc(C)c(OP(Oc2c(C)cc(C)cc2C)Oc2c(C)cc(C)cc2C)c(C)c1`, the melting point was in the range of 92 to 95 °C.

`O=C(c1ccccc1)c1c(Cl)cc(CBr)cc1Cl`: the melting point was in the range of 111 to 113 °C.

As to `Cc1nc2cccc(S(=O)(=O)n3c(COC(C)C(=O)O)cc4nc(Cl)ccc43)c2s1` (stereo unspecified), the melting point was 203 to 205 °C.

On to `CSc1cc2c(cc1C(F)(F)F)N(C(=O)Nc1cccc(C(=O)O)c1)CC2`, for which the melting point is over 200 °C.

Consider `CC(=O)Nc1nc2c(ncn2COCCOC(C)=O)c(=O)[nH]1`, for which the melting point fell in the range of 202 to 204 °C.

Consider `CCN(CC)C(=O)n1cnc(Sc2c(C)cccc2C)n1`, for which the melting point was in the range of 111 to 112 °C.

On to `O=C(NC(=O)c1ccccc1)NC1CCCc2sccc21` (stereo unspecified), for which the melting point fell in the range of 189 to 194 °C.

Compound `Cn1c(C(N)=O)nc([N+](=O)[O-])c1CBr` came in with a melting point of 220 to 222 °C.

Turning to `C=C(c1ccc(OC)cc1)c1ccc(OC)cc1`, the melting point worked out at 137 °C.

The compound `CC(C)c1cccc(C(C)C)c1NC(=O)CC(=O)N(Cc1ccccc1)C(C)C` returned a melting point of 102 °C.

As for `Cc1ccc(C(=NO)C(F)(F)F)cc1`, the melting point is 54 to 68 °C.

In turn, `CNc1nc(Cl)nc2c1ncn2C1CC(O)C(CO)O1` (stereo unspecified) yielded a melting point of 163 to 165 °C.

`Cc1nc(C)c(-c2ccnc(Nc3ccc(Cl)c(CO)c3)n2)s1` had a melting point of 245 to 246 °C.

Compound `N=C(N)NCCCCC(=O)Nc1ccc(OCc2ccccc2)c(C(=O)NCCC(=O)O)c1` showed a melting point of 242 to 245 °C.

As to `CSC(=S)Nc1ccccc1N`, the melting point was 114 °C.

`COc1cccc(-c2nc(Cl)nc(Nc3ccc(O)cc3)n2)c1` displayed a melting point of 164 °C.

In the case of `O=C1Nc2ccc(F)cc2C(C#Cc2ccccc2)(C(F)(F)F)N1` (racemic), the melting point worked out at 107 °C.

For the compound `COC(=O)c1cc(=O)c2oc3cc(OC)ccc3c(=O)c2[nH]1`, the melting point was in the range of 258 to 260 °C.

As for `O=C(O)CNC1CCc2ccccc21` (stereo unspecified), the melting point fell in the range of 184 to 186 °C.

Compound `CCN(CC)CCCCNc1ncc2cc(-c3c(Cl)cccc3Cl)c(NC(=O)Nc3ccccc3)nc2n1` had a melting point of 81 to 87.5 °C.

`COc1ccc2c(c1)N(Cc1ccccc1)C(=O)C1CCCC1=N2` (stereo unspecified) registered a melting point of 105 to 107 °C.

`CC(=O)NCCOC(=O)C(Oc1cccc(C(F)(F)F)c1)c1ccc(Cl)cc1` (stereo unspecified) registered a melting point of 93 to 95 °C.

In the case of `CNc1cnc2ccc(Cl)cc2c1-c1ccccc1`, the melting point lay in the range of 139 to 140 °C.

Regarding `Fc1cccc(C(c2ccccc2)(c2cccc(F)c2)n2ccnc2)c1`, the melting point lay in the range of 165 to 167 °C.

In the case of `O=C(c1ccccc1)c1ccc(SC(Cl)(Cl)Cl)cc1`, the melting point was 62 to 63 °C.

Compound `CSc1ncc(C(=O)Cc2c(Cl)cncc2Cl)cc1OC(C)C` yielded a melting point of 124 to 125 °C.

On to `COc1ccc2[nH]cc(C3=CCN(C[C@H](O)COc4cccc5[nH]ccc45)CC3)c2c1`, for which the melting point fell in the range of 105 to 110 °C.

As for `COC(=O)CCc1oc(-n2ccnc2S(C)(=O)=O)nc1-c1ccc(Cl)cc1`, the melting point lay in the range of 112 to 113 °C.

With `Cc1nc(N)c2nc(C)n(CCCCNS(C)(=O)=O)c2c1C`, the melting point was 228 to 230 °C.

In turn, `COc1cc2c(=O)c(Cc3cccnc3)cn3c4ccc(Br)cc4c(c1)c23` had a melting point of 150 to 151 °C.

`CC1(C)CC(=O)CC(C)(P(=O)(O)O)C1` (stereo unspecified) showed a melting point of 167 to 168 °C.

Turning to `CC(C)(C)Oc1ccc(CCC(=O)NCCC(=O)O)cc1`, the melting point is 70 to 72 °C.

`Nc1nc2c(s1)CCN(C/C=C\c1cccc3c1CC(=O)N3)CC2` registered a melting point of 192 to 195 °C.

`O=C(O)CC=C(c1ccccc1)c1ccc(F)cc1` gave a melting point of 98 to 100 °C.

In turn, `Cc1cccc(-n2nc3c(c2-c2cc4cnccc4s2)CCC3)n1` returned a melting point of 146 to 148 °C.

For the compound `Nc1nc2c(ncn2OCC/C=C\P(=O)(O)O)c(=O)[nH]1`, the melting point was in the range of 240 to 242 °C.

In turn, `C=C=C[C@]12CCC(=O)C=C1C(=O)C[C@@H]1[C@@H]2CC[C@]2(C)C(=O)CC[C@@H]12` returned a melting point of 187 to 190 °C.

In turn, `CN(C)c1nc2cc(C(F)(F)F)ccc2n1Cc1ccc(Cl)cc1` displayed a melting point of 103 to 107 °C.

For the compound `CN1N=C(c2ccc3c(c2)CCC(=O)N3)C2CC2C1=O` (stereo unspecified), the melting point lay in the range of 255 to 259 °C.

Regarding `COc1cc(C(=O)c2cccnc2)ccc1OCc1ccccc1`, the melting point turned out to be 76 °C.

For the compound `CN(N)c1nc2ccccc2o1`, the melting point was 128 to 131 °C.

The compound `Cc1c(N2CCC(C(N)c3cccnc3)C2)c(F)c(N)c2c(=O)c(C(=O)O)cn(C3CC3F)c12` (stereo unspecified) returned a melting point of 213 to 215 °C.

In turn, `O=C1CCC(=O)N1SCc1ccc([N+](=O)[O-])cc1` showed a melting point of 146 to 148 °C.

For the compound `Oc1ccc(-c2ncc3ncc(-c4cccc(O)c4)cc3n2)cc1`, the melting point was in the range of 256 to 257 °C.

Turning to `O=C(NC1CCCCC1)Oc1ccccc1-c1ccccc1`, the melting point was in the range of 119 to 121 °C.

`CC(C)CNC(=O)c1cccnc1Oc1cccc(Cl)c1` registered a melting point of 86 to 87 °C.

The compound `C1=Cc2ccccc2NN=C1` yielded a melting point of 183 to 184 °C.

As to `CN(C(=O)c1ccccc1OCC(=O)O)c1ccccc1`, the melting point is 148 °C.

The compound `CC(C)C(CO)CS(N)(=O)=O` (stereo unspecified) returned a melting point of 83 to 84 °C.

Turning to `Cc1cc2ccccc2cc1C=O`, the melting point was determined as 119 °C.

In turn, `C=C(C)C(=O)OCCOc1ccc(OCCOC(=O)c2ccc(O)c(Cl)c2)cc1` returned a melting point of 105 to 106 °C.

The compound `CN1CCC(Nc2ncc3ncnc(Nc4ccc(Oc5ccccc5)cc4)c3n2)CC1` displayed a melting point of 157 °C.

The compound `CC1(C)CCC(C)(C)c2cc3c(cc21)C(=O)C=CC3=O` returned a melting point of 161 to 163 °C.

Turning to `N=C(N)NCc1ccc(OCCC2Oc3ccccc3N(Cc3ccccc3Cl)C2=O)cc1` (stereo unspecified), the melting point was in the range of 180 to 182 °C.

Compound `O=C1NC(=O)C(=Cc2ccc3c(c2)CCC(Cc2ccc(OCc4ccccc4)cc2)O3)S1` (stereo unspecified) displayed a melting point of 245 to 250 °C.

For `O=C(NCc1ccc(Cl)cc1)c1cnc2sc(CCCO)cc2c1O`, the melting point lay within 185 to 186 °C.

Take `CC(C)(C)c1cc(C(=O)Nc2ccc(C(=O)O)cc2)cc(C(C)(C)C)c1O`: the melting point lay within 160 to 162 °C.

Turning to `Cc1ccc(C=O)n1Cc1ccc(Cl)cc1Cl`, the melting point lay in the range of 86 to 87 °C.

In the case of `O=C(O)c1nc2ccc(NCCCN3CCC(OC(c4ccccc4)c4ccccc4)CC3)nn2n1`, the melting point fell in the range of 135 to 138 °C.

Take `Clc1ccc2ncn3cnnc3c2c1`: the melting point lay in the range of 179 to 182 °C.

On to `CCSc1ncc(Oc2ccc(Cl)c(Cl)c2)cc1C#N`, for which the melting point fell in the range of 80 to 81 °C.

`Cc1c2c(c(C)c3c1NCC3)OC(C)(CI)C2` (stereo unspecified) displayed a melting point of 90 to 91 °C.

In turn, `COCc1ccc(C)c(NC(=O)CC23CC4CC(CC(C4)C2)C3)c1` came in with a melting point of 127 to 128 °C.

For `CC1Cc2cc(S(N)(=O)=O)cc(C(=O)NCC3CCCN3C)c2O1` (stereo unspecified), the melting point lay in the range of 187 to 189 °C.

The compound `CC(C)CCC1C(=O)NS(=O)(=O)N1C` (stereo unspecified) came in with a melting point of 212 to 214 °C.

`CN(c1cc(=S)ss1)C1CCCCC1` had a melting point of 107 °C.

As to `CC(C)(C)c1cc(CN(c2cccnc2)S(C)(=O)=O)cc(C(C)(C)C)c1O`, the melting point is 133 to 134 °C.

`CC(C)COc1ccc2sc(-c3ccccn3)nc(=O)c2c1`: the melting point amounted to 136 °C.

In turn, `CCOC(=O)C(C)Oc1ccc(-c2nc(-c3ccc(OC(C)C(=O)OCC)cc3O)nc(-c3c(C)cc(C)cc3C)n2)c(O)c1` (stereo unspecified) gave a melting point of 142 to 147 °C.

Consider `Cc1ccc(NC=CS(=O)(=O)F)cc1`, for which the melting point fell in the range of 61 to 65 °C.

For `COc1ccc(CNn2c(=O)ccc3cnc(SC)nc32)cc1Cl`, the melting point lay within 189 to 190 °C.

Compound `CCCCc1nc2cc[nH]c(=O)c2n1Cc1ccc(-c2ccccc2C#N)cc1` had a melting point of 165 °C.

In the case of `CCc1ncnc(NC(CC)c2ccc(Oc3c(F)c(F)c(C(F)(F)F)c(F)c3F)cc2)c1Cl` (stereo unspecified), the melting point was 58 to 61 °C.

Regarding `O=C1C2Cc3c(nc(Br)n3Cc3ccccc3)CN2C(=O)N1c1ccccc1` (stereo unspecified), the melting point lay in the range of 267 to 269 °C.

Take `CCCCc1nn(-c2ccc(C(F)(F)F)cn2)cc1CCCOc1nn(C)cc1CC(=O)O`: the melting point was 125 to 126 °C.

In turn, `CC(C)c1cc(C(=O)O)c(N)c(C(C)C)c1` registered a melting point of 114 to 116 °C.

For `O=Cc1cccc2nnc(-c3ccccc3)cc12`, the melting point is 156 to 157 °C.

`COc1cc(C(C)C)c2c(c1)S(=O)(=O)N(COP(=O)(OCc1ccccc1)OCc1ccccc1)C2=O` registered a melting point of 75.5 to 76.5 °C.

Turning to `CCOC(=O)c1cc(C)c(Cl)nc1C(=O)OCC`, the melting point fell in the range of 84 to 86 °C.

In the case of `O=C(O)c1ccccc1OCCCc1cc(-c2ccc(C(F)(F)F)cc2)no1`, the melting point fell in the range of 132 to 133 °C.

With `CSc1csc2c1CCN(C)CC2c1ccccc1` (stereo unspecified), the melting point came to 93 °C.

In the case of `COc1ccc(NC(=O)/C=C/c2ccc([N+](=O)[O-])c(F)c2)cc1[N+](=O)[O-]`, the melting point is 263 to 265 °C.

For the compound `CS(=O)(=O)N(Cc1ccc(C(F)(F)F)cc1)CC(O)(Cn1cncn1)c1ccc(Cl)cc1Cl` (stereo unspecified), the melting point lay in the range of 139 to 141 °C.

`C=C1C(=O)Nc2ccc(C(F)(F)F)cc2CC1c1ccc(OC)cc1` (stereo unspecified) returned a melting point of 181 to 183 °C.

Take `Cc1cc(OCC(=O)NCc2ccccc2)ccc1N1CC(=O)NS1(=O)=O`: the melting point was in the range of 70 to 90 °C.

`COC(=O)C[C@@H](N)c1ccc(NC(=O)Cc2ccc(NC(=O)Nc3ccccc3C)c(OC)c2)cc1` came in with a melting point of 189 to 191 °C.

In turn, `CN(Cc1ccc(NC(=O)C2=Cc3cc(Br)ccc3N(C=O)CC2)cc1)C1CCOCC1` had a melting point of 173 to 175 °C.

Broadly, the melting point is the temperature, or range, at which the solid turns liquid.
